Reference: PubChem BioAssay AID1845201 (Molecular Pharmacology Branch, DTP, NCI, 2023)
Values joined by “and” are separate entries in the source; they are usually repeats but may differ in a detail not shown here. Identical values can stand only once.

Tested on: COR L88 complex tumor spheroid viability
Test: Anticancer human tumor COR L88 cell line growth inhibition;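 further: compound exposure lasted 7 days before viability readout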;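 on viability, T/C: percent of DMSO vehicle-treated spheroids = 100%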
Settings: for viability, T/C: stronger effect = lower value
From the text: Multicellular complex tumor spheroid response to DNA repair inhibitors in combination with DNA-damaging drugs
This study explores the anticancer activities of DNA-damaging drugs and inhibitors of DNA damage repair, both as single agents and in combinations. Complex tumor spheroids comprised of malignant cells, endothelial cells and mesenchymal stem cells served as an in vitro model for human solid tumors. This model system incorporates physiologically relevant features and patient-derived or established malignant cell lines with clinically relevant genetic alterations from many tumor types. Twenty-six patient-derived or established malignant cell lines were evaluated representing sarcoma, melanoma, small cell lung cancer (SCLC), non-small cell lung cancer (NSCLC), as well as bladder, ovarian and pancreatic cancers. The concentration ranges selected for each drug and investigational agent were based upon clinically achievable concentrations if the clinical Cmax of the agent was known.
Compounds. The drugs and compounds olaparib (NSC753686), talazoparib (NSC767125), berzosertib (NSC777718), elimusertib (NSC800525), nedisertib (NSC802822), VX-984 (NSC792969), AZD-1390 (NSC803789), temozolomide (NSC362856), topotecan (NSC609699), trabectedin (NSC813783), staurosporine (NSC755774), and gemcitabine (NSC613327) were obtained from the National Cancer Institute (NCI) Developmental Therapeutics Program Chemical Repository. The FDA-approved anticancer drug set is available from the Developmental Therapeutics Program at https://dtp.cancer.gov/organization/dscb/obtaining/available_plates.htm. […] The stock solutions were prepared in dimethyl sulfoxide (DMSO, Sigma-Aldrich, St. Louis, MO, cat. D2650) at 400-fold the tested concentration and stored at -70 degrees C. Prior to their use, the stock solutions were diluted in fresh medium and the final DMSO concentration in the assay was 0.25% (v/v). All drugs and investigational agents were tested over a range starting from a high concentration at or near the clinical Cmax and decreasing in half-log increments. If the clinical Cmax for an agent had not been determined, the highest concentration tested was 10 microM.
Cell Lines. The patient-derived cancer cell (PDC) lines: 156681-154-R-J1-PDC, 283228-195-R-J1-PDC, 287954-098-R-J1-PDC, 292921-168-R-J2-PDC, 349418-098-R-PDC, 425362-245-T-J1-PDC, 556581-035-R-J1-PDC, and BL0293-F563-PDC were received from the NCI Patient-Derived Models Repository (PDMR, https://pdmr.cancer.gov). The established cell lines HS-SY-2 (RRID:CVCL_8719), MPNST, and SYO-1 (RRID:CVCL_7146) were obtained from the Sloan Kettering Institute. The alveolar soft parts sarcoma cell line ASPS-1 (RRID:CVCL_S738) was established at the NCI and grown from internal seed stocks. The following established cell lines were purchased from the American Type Culture Collection (ATCC, Manassas, VA): G-401 (ATCC, cat. CRL-1441, RRID:CVCL_0270), SW982 (ATCC, cat. HTB-93, RRID:CVCL_1734), VA-ES-BJ (ATCC, cat. CRL-2138, RRID:CVCL_1785), NCI-H719 (ATCC, cat. CRL-5837, RRID:CVCL_1582), NCI-H196 (ATCC, cat. CRL-5823, RRID:CVCL_1509), NCI-H841 (ATCC, cat. CRL-5845, RRID:CVCL_1595), NCI-H1618 (ATCC, cat. CRL-5879, RRID:CVCL_1480), NCI-H1876 (ATCC, cat. CRL-5902, RRID:CVCL_1503), DMS 114 (ATCC, cat. CRL-2066; RRID:CVCL_1174), NCI-H211 (ATCC, cat. CRL-5824; RRID:CVCL_1529), and SW 1271 (ATCC, cat. CRL-2177, RRID:CVCL_1716). The small cell lung cancer cell line COR-L88 was purchased from Sigma-Aldrich (cat. 92031917-1VL, RRID:CVCL_1141). The non-small cell lung cancer cell lines NCI-H226 (RRID:CVCL_1544) and NCI-H322M (RRID:CVCL_1557) were established at the NCI and grown from internal seed stocks. Pooled donor human umbilical vein endothelial cells (HUVEC, Lonza, cat. CC-2519) and human mesenchymal stem cells (hMSC, Lonza, cat. PT-2501) were purchased from Lonza (Walkersville, MD).
Cell Culture. All cells were maintained in an incubator at 37 degrees C and 5% CO2 with 95% humidity. […]

[1] = compound alone, run of 10/17/2019
[2] = compound alone, run of 10/25/2019

| Compound | viability, T/C (compound 0.0316 µM) | viability, T/C (compound 0.1 µM) | viability, T/C (compound 0.316 µM) | viability, T/C (compound 1 µM) | viability, T/C (compound 3.16 µM) | viability, T/C (compound 10 µM) | IC50 (curve of compound) | viability, T/C (compound 0.00949 µM) | viability, T/C (compound 0.03 µM) | viability, T/C (compound 0.0949 µM) | viability, T/C (compound 0.3 µM) | viability, T/C (compound 0.949 µM) | viability, T/C (compound 3 µM) | also measured |
| --- | --- | --- | --- | --- | --- | --- | --- | --- | --- | --- | --- | --- | --- | --- |
| CC(C)n1c(=O)n(C)c2cnc3cc(F)c(-c4ccc(OCCCN5CCCCC5)nc4)cc3c21 | 103% and 92.5% and 102% | 113% and 103% (2×) | 110% and 99.5% and 98.2% | 94.8% and 88.6% and 99% | 95.3% and 89.8% and 87.5% | 56.5% and 61% and 56.6% | > 10000 nM | – | – | – | – | – | – | – |
| CC1COCCN1c1cc(-c2ccnn2C)c2ccnc(-c3ccn[nH]3)c2n1 (stereo not drawn) | 94.4% and 93.6% and 97.8% | 59.7% and 70.8% and 77% | 34.2% and 52% and 53.1% | 22.5% and 30.1% and 36% | 9.11% and 13.8% and 14.6% | 3.91% and 5.8% and 5.02% | 159 nM and 319 nM and 403 nM | – | – | – | – | – | – | – |
| CC[C@@]1(O)C(=O)OCc2c1cc1n(c2=O)Cc2cc3c(CN(C)C)c(O)ccc3nc2-1 | – | – | – | – | – | – | – | 76% [middle of 10 runs] | 55% [middle of 10 runs] | 52% [middle of 10 runs] | 48.1% [middle of 10 runs] | – | – | IC50 [1]: 45.7 nM [middle of 5 runs]; IC50 [2]: > 300 nM and 163 nM and 172 nM |
| CNCc1ccc(-c2cc(-c3nc(-c4ccc(S(=O)(=O)C(C)C)cc4)cnc3N)on2)cc1 | – | – | – | – | – | – | 753 nM and 848 nM and 391 nM | 98.5% and 103% and 105% | 111% and 118% and 104% | 109% and 107% and 101% | 87% and 84.6% and 56.4% | 40.9% and 47.2% and 22.6% | 11.8% and 11.3% and 5.68% | – |
| COc1cc(C)[nH]c(=O)c1CN1CCc2c(Cl)cc(C(OC)C3COC3)c(Cl)c2C1=O (stereo not drawn) | 109% and 91.5% and 89.8% | 100% and 89.6% and 97% | 95.5% and 80.1% and 98.1% | 89.2% and 76.7% and 91.4% | 96.1% and 84.8% and 85.8% | 92.2% and 75.5% and 90.1% | > 10000 nM | – | – | – | – | – | – | – |
| COc1cc2c(cc1O)CCNC21CSC2c3c(OC(C)=O)c(C)c4c(c3C(COC1=O)N1C(O)C3Cc5cc(C)c(OC)c(O)c5C(C21)N3C)OCO4 (stereo not drawn) | – | – | – | – | – | – | – | – | – | – | – | – | – | viability, T/C (compound 30 pM): 103% [middle of 10 runs]; viability, T/C (compound 94.9 pM): 110% [middle of 10 runs]; viability, T/C (compound 0.0003 µM): 71.5% [middle of 10 runs]; viability, T/C (compound 0.000949 µM): 59.8% [middle of 10 runs]; viability, T/C (compound 0.003 µM): 0.67% [middle of 10 runs]; IC50 [2]: 1.02 nM [middle of 10 runs] |
| COc1ccc([C@@H](O)c2cc(-c3ncnc4cc(N5CCOCC5)ccc34)c(F)cc2Cl)nn1 | 108% and 105% and 101% | 98.8% and 102% and 98.1% | 103% and 93.9% and 104% | 76.1% and 83% and 81.6% | 56% and 64.4% and 54.8% | 33.7% and 39% and 36.1% | 4010 nM and 6100 nM | – | – | – | – | – | – | – |
| Cc1cc(C)c(CNC(=O)c2cc(-c3ccc(CN4CCOCC4)cc3)cc3c2cnn3C2CCCC2)c(=O)[nH]1 | 92.8% and 89.3% and 93.7% | 102% and 98.3% and 89.8% | 101% and 100% and 96.4% | 84.1% and 93.3% and 95.8% | 85.2% and 88.7% and 77.4% | 44.7% and 56.8% and 52.6% | 8670 nM and > 10000 nM | – | – | – | – | – | – | – |
| Cc1sc2c(c1C)C(c1ccc(Cl)cc1)=NC(CC(=O)Nc1ccc(O)cc1)c1nnc(C)n1-2 (stereo not drawn) | – | – | – | – | – | – | 534 nM and 543 nM and 283 nM | 93.4% and 99.2% and 89.1% | 94.7% and 94.8% and 84.9% | 103% and 94.4% and 85.7% | 63.8% and 67.1% and 47.9% | 37.4% and 33.8% and 21.4% | 20.6% and 19.2% and 17.3% | – |
| Cn1ncnc1[C@H]1c2n[nH]c(=O)c3cc(F)cc(c23)N[C@@H]1c1ccc(F)cc1 | – | – | – | – | – | – | 665 nM and 353 nM and 293 nM | 88.5% and 92.9% and 87.1% | 79.6% and 66.2% and 79.5% | 66.9% and 62.7% and 56% | 59.6% and 54.9% and 49.2% | 43.3% and 45% and 39.5% | 43.6% and 37.6% and 40.6% | – |
| Cn1nnc2c(C(N)=O)ncn2c1=O | – | – | – | 96.2% [middle of 10 runs] | 96.8% [middle of 10 runs] | 95% [middle of 10 runs] | – | – | – | – | – | – | – | viability, T/C (compound 31.6 µM): 84.1% [middle of 10 runs]; viability, T/C (compound 100 µM): 70.6% [middle of 10 runs]; IC50 [1]: > 100000 nM |
| O=C(c1cc(Cc2n[nH]c(=O)c3ccccc23)ccc1F)N1CCN(C(=O)C2CC2)CC1 | – | – | – | – | – | – | > 30000 nM | – | – | 97.2% and 87.7% and 107% | 98.2% and 101% and 103% | 101% and 97.9% and 94.2% | 85.7% and 87.9% and 90.7% | viability, T/C (compound 9.49 µM): 61.5% and 67.3% and 70.3%; viability, T/C (compound 30 µM): 49.8% and 50.5% and 58.2% |
| [2H]c1nc(C)nc([2H])c1-c1cc(NC[C@@H](C)c2cccc3c(C(=O)NC)ccnc23)ncn1 | 101% and 94.7% and 105% | 99.9% and 96.5% and 98.1% | 109% and 101% and 102% | 88.5% and 106% and 102% | 92.1% and 95.2% and 96.4% | 91.8% and 97.2% and 103% | > 10000 nM | – | – | – | – | – | – | – |
